A short description of data set [1]: Clearance in microsomes, human. The following applies: read-out: CLint, Human (L/h/kg) ± SD (converted). The data set is classed as in vitro ADME. An excerpt:
(§1) Deuterated compounds were compared to their non-deuterated parent counterparts to determine the impact of deuteration on clearance results

Data set [2] is described as follows: Clearance in microsomes, rat. The data set is classed as in vitro ADME. The following applies: read-out: CLint, Rat (L/h/kg) ± SD (converted).
Excerpt: as §1

Data set [3] can be described thus: Clearance in microsomes, dog. The data set is classed as in vitro ADME. The conditions noted are these: read-out: CLint, Dog (L/h/kg) ± SD (converted).
Excerpt: as §1

Data set [4] in a line: Clearance in microsomes, cyno. The data set is classed as in vitro ADME. The following applies: cynomolgus monkey, read-out: CLint, Cyno (L/h/kg) ± SD (converted).
Excerpt: as §1

A short description of data set [5]: Clearance in hepatocytes, human. The data set is classed as in vitro ADME. The following applies: read-out: CLint, Human (L/h/kg) ± SD (converted).
Excerpt: as §1

Data set [6] is described as follows: Clearance in hepatocytes, rat. The data set is classed as in vitro ADME. The conditions noted are these: read-out: CLint, Rat (L/h/kg) ± SD (converted).
Excerpt: as §1

Data set [7] is described as follows: Clearance in hepatocytes, dog. The data set is classed as in vitro ADME. The conditions noted are these: read-out: CLint, Dog (L/h/kg) ± SD (converted).
Excerpt: as §1

Data set [8] in a line: Clearance in hepatocytes, cyno. The data set is classed as in vitro ADME. The conditions noted are these: cynomolgus monkey, read-out: CLint, Cyno (L/h/kg) ± SD (converted).
Excerpt: as §1

Data set [9] concerns P-gp (MDR1). Kind of data set: MDCK-MDR1 assay (permeability, efflux ratio). The following applies: dog, Papp BA/Papp AB. The data set is classed as in vitro ADME. How it is done:
The permeability of the test compounds was assessed in MDCK-MDR1 cells that were cultured to confluency (4-6 days) in a 96 transwell plate. Test compounds were diluted with the transport buffer (HBSS+1% BSA) to a concentration of 0.5 μM and applied to the apical or basolateral side of the cell monolayer. Permeation of the test compounds from A to B direction or B to A direction was determined in triplicate over a 60-minute incubation time at 37° C. and 5% CO2 with a relative humidity of 95%. Test compounds were quantified by LC-MS/MS analysis based on the peaks area ratios of analyte/IS in both the receiver and donor wells of the transwell plate.
The apparent permeability coefficient Papp (cm/s) was calculated using the equation: […]
Where dCr/dt is the cumulative concentration of compound in the receiver chamber as a function of time (μM/s); Vr is the solution volume in the receiver chamber (0.05 mL on the apical side; 0.25 mL on the basolateral side); A is the surface area for the transport, i.e. 0.0804 cm^2 for the area of the monolayer; CO is the initial concentration in the donor chamber (μM).
Compounds are classified Pgp substrates when efflux ratio (Papp BA/Papp AB) is ≥2.

For data set [10], the target named is T1, BACE1 (Homo sapiens, UniProt P56817). Put plainly: BACE1 efficacy assay (FRET-based). The conditions noted are these: 10 μM test compound. More on the design: purchased Life Technologies P2985. The data set is classed as biochemical. As to the method: The efficacy assay was performed as a FRET-based assay using a commercially available BACE1 kit (Life Technologies, P2985). 2 μl test compound at 10 μM (final concentration) and 15 μl BACE1 enzyme from the kit (final concentration 3 nM) were preincubated for 15 minutes at room temperature before addition of 15 μl of substrate from the kit (250 nM final concentration) and incubated for additional 90 minutes at room temperature. The assay plate was subsequently read in a Pherastar (Ex540/Em590). The enzyme activity observed in presence of test compound were normalized to the enzyme activity observed in presence of buffer and 10 μM (final concentration) of the high affinity BACE1 reference inhibitor (S)-6-[3-Chloro-5-(5-prop-1-ynyl-pyridin-3-yl)-thiophen-2-yl]-2-imino-3,6-dimethyl-tetrahydropyrimidin-4-one, respectively. The efficacy of the test compounds was evaluated at 10 μM (final concentration) and defined as the percent inhibition of the enzyme activity using the equation % inhibition=100%−normalized enzyme activity in percent.
T1 sequence (P56817 46-501): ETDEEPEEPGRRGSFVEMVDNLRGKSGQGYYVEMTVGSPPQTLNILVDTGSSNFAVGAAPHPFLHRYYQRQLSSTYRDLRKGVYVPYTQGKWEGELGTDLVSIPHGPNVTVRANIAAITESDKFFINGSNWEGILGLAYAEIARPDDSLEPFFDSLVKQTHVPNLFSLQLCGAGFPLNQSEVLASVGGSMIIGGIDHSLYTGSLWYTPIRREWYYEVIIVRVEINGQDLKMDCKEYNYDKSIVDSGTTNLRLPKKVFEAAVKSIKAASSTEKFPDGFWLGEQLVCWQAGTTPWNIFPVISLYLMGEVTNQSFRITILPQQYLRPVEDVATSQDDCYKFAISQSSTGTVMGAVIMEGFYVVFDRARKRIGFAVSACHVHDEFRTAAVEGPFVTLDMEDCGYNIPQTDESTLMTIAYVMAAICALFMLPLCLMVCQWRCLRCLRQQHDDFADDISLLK

Data set [11] addresses T1, BACE1. Put plainly: BACE1 binding assay (SPA-based). More on the design: biotin (biotinylated form); made in house; host or cells: Freestyle HEK293 cells. The following applies: pH 4.5, 10 nM radioligand. As to the method:
The binding assay was performed as SPA-based assay using a biotinylated form of human BACE1 recombinantly expressed and subsequently purified from Freestyle HEK293 cells. The binding assay was run in a 50 mM sodium acetate buffer, pH 4.5 containing 50 mM NaCl and 0.03% Tween-20 in white clear bottom 384 plates (Corning #3653). […] The plates were incubated for one hour at room temperature and counted in a Wallac Trilux counter. Total and non-specific binding were determined using buffer and 1 μM (final concentration) of the high affinity BACE1 reference inhibitor (S)-6-[3-chloro-5-(5-prop-1-ynyl-pyridin-3-yl)-thiophen-2-yl]-2-imino-3,6-dimethyl-tetrahydro-pyrimidin-4-one, respectively. For each test compound, a IC50 value (the concentration mediating 50% inhibition of the specific binding of the radioligand) was determined from concentration-response curve and used to calculate the Ki from the equation Ki=IC50/(1+L/Kd), where L and Kd are the final concentration of the radioligand used in the assay and the dissociation constant of the radioligand, respectively. The Kd of the radioligand was determined from saturation binding experiments.

Regarding `COc1cnc(C(=O)Nc2ccc(F)c([C@]3(C)CC[C@@](F)(CF)C(N)=N3)c2)cn1` [Compound Z], the CLint scaled at 0.1 µM was 1 L/h/kg in data set [1] (0.1 microM); 2.7 L/h/kg in data set [2] (0.1 microM); 40 L/h/kg in data set [3] (0.1 microM); 70 L/h/kg in [4] (0.1 microM); 1 L/h/kg in data set [5]; 1.7 L/h/kg in data set [6]. The CLint scaled at 0.1 µM was 112 L/h/kg in [7] and 137 L/h/kg in data set [8]. The CLint scaled at 0.3 µM in data set [1] (0.3 microM) is 0.75 L/h/kg; in data set [2] (0.3 microM) it was 1.8 L/h/kg; in [3] (0.3 microM), 31 L/h/kg; in data set [4] (0.3 microM), 61 L/h/kg; in [5], 0.95 L/h/kg; in data set [6], 1.5 L/h/kg. The CLint scaled at 0.3 µM is 101 L/h/kg in data set [7] and 135 L/h/kg in data set [8]. Moreover, the CLint scaled at 1 µM in [1] was 0.51 L/h/kg; in [2] it was 1.3 L/h/kg; in data set [3] it was 25 L/h/kg; in data set [4], 34 L/h/kg; in [5], 0.72 L/h/kg; in [6], 1 L/h/kg. The CLint scaled at 1 µM in data set [7] was 64 L/h/kg; in [8], 75 L/h/kg.
As usually defined, the efflux ratio is the permeability from basolateral to apical divided by that in the opposite direction, in the common usage. As a reminder, the inhibition is the relative decrease from the control value, in per cent. Low readings indicate a weak effect, high ones a strong effect. What is called Ki is the dissociation constant of the complex between target and ligand, obtained from inhibition or displacement. A high value points to a looser hold on the target. Regarding `[2H]C([2H])([2H])Oc1cnc(C(=O)Nc2cc(F)c(F)c([C@]3(C)CC[C@](F)(CF)C(N)=N3)c2)cn1` [Example 2, N-[3-[(2S,5R)-6-amino-5-fluoro-5-(fluoromethyl)-2-methyl-2,3,4,5-tetrahydropyridin-2-yl]-4,5-difluoro-phenyl]-5-(methoxy-d3)pyrazine-2-carboxamide], the efflux ratio at 60 min, 0.5 μM in [9] came out at 0.96. This compound returned an inhibition at 10 µM in data set [10] of 99%. Moreover, the Ki in [11] was determined as 84 nM.
`[2H]C([2H])([2H])Oc1ccc(C(=O)Nc2ccc(F)c([C@@]3(C(F)F)N=C(N)CCC3(F)F)c2)nc1` [Compound Y]: the CLint scaled at 1 µM is 0.5 L/h/kg in data set [1]; 1 L/h/kg in [2]; 21 L/h/kg in [3]; 12 L/h/kg in data set [4]; 0.29 L/h/kg in data set [5]; 2.1 L/h/kg in data set [6]. The CLint scaled at 1 µM in [7] is 57 L/h/kg; in data set [8], 14 L/h/kg. Besides, the CLint scaled at 0.1 µM in data set [5] is less than 0.1 L/h/kg; in [6], 1.4 L/h/kg; in [7] it was 98 L/h/kg; in [8], 80 L/h/kg. Besides, the CLint scaled at 0.3 µM in data set [5] was less than 0.1 L/h/kg; in data set [6], 1 L/h/kg; in data set [7], 84 L/h/kg; in [8], 32 L/h/kg.
As to `[2H]C([2H])([2H])Oc1cnc(C(=O)Nc2ccc(F)c([C@]3(CF)CC[C@@](F)(CF)C(N)=N3)c2)cn1` [Example 4, N-[3-[(2S,5S)-6-amino-5-fluoro-2,5-bis(fluoromethyl)-2,3,4,5-tetrahydropyridin-2-yl]-4-fluoro-phenyl]-5-(methoxy-d3)pyrazine-2-carboxamide], the efflux ratio at 60 min, 0.5 μM in data set [9] was found to be 0.73. The compound also returned an inhibition at 10 µM in data set [10] of 97%. In [11], this compound displayed a Ki of 14 nM.
For the compound `[2H]C([2H])([2H])Oc1cnc(C(=O)Nc2cc(F)c(F)c([C@]3(C)CC[C@@](F)(CF)C(N)=N3)c2)cn1` [Example 5, N-[3-[(2S,5S)-6-amino-5-fluoro-5-(fluoromethyl)-2-methyl-2,3,4,5-tetrahydropyridin-2-yl]-4,5-difluoro-phenyl]-5-(methoxy-d3)pyrazine-2-carboxamide], the efflux ratio at 60 min, 0.5 μM in data set [9] was 0.77. The compound also returned an inhibition at 10 µM in [10] of 100%. For the same compound, the Ki in [11] worked out at 9.8 nM.
Turning to `[2H]C([2H])([2H])Oc1cnc(C(=O)Nc2ccc(F)c([C@]3(CF)CC[C@](F)(CF)C(N)=N3)c2)cn1` [Example 3, N-[3-[(2S,5R)-6-amino-5-fluoro-2,5-bis(fluoromethyl)-2,3,4,5-tetrahydropyridin-2-yl]-4-fluoro-phenyl]-5-(methoxy-d3)pyrazine-2-carboxamide], in data set [9], the efflux ratio at 60 min, 0.5 μM was 0.85. In addition, the inhibition at 10 µM in [10] was found to be 97%. The same compound registered an inhibitory constant (Ki) in data set [11] of 67 nM.

(Values after US20180186769A1, “6-AMINO-5-FLUORO-5-(FLUOROMETHYL)-2,3,4,5-TETRAHYDROPYRIDIN-2-YL-PHENYL-5-(METHOXY-D3)-PYRAZINE-2-CARBOXAMIDES AND FLUORINATED DERIVATIVES THEREOF AS BACE1 INHIBITORS” (H. Lundbeck A/S, priority 2016, published 2018).)
